Results reported in patent US4535080A, “Derivatives of 2-piperazino-pyrimidine, methods for their preparation and their utilization as drugs or intermediates for drugs” (Pharmuka Laboratoires, priority 1981, dated 1985).
Like-named read-outs stand apart in the source and are kept apart here.

Assays:
[1] = tested on: alpha-2 adrenergic receptors; conditions: background statement; cited from earlier work
[2] = tested on: alpha adrenergic receptors; conditions: background statement; cited from earlier work
[3] = molecular target: T1, receptor sites of clonidine (rat cortex membranes) (Rattus norvegicus, UniProt P22909); assay: Affinity for the receptor sites of clonidine (3H clonidine binding, rat cortex membranes)
T1 construct: measured on rat cortex membranes; from tissue; host or cells: rat cortex membranes
T1 sequence (P22909 1-465): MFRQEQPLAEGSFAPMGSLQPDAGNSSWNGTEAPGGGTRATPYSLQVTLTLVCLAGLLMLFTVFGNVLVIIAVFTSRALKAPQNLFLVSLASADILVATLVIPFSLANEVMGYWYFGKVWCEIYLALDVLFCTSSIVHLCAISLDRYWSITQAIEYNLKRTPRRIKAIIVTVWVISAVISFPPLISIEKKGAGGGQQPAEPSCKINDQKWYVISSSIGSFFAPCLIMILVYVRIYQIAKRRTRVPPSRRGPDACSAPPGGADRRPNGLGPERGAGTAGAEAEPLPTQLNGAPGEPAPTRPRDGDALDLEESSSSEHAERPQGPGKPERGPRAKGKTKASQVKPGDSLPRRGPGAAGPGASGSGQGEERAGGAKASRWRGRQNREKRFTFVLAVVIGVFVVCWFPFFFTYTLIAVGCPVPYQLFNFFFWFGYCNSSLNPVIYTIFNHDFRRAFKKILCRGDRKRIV

| Structure (SMILES) | Ki [3] [nM] | further results |
| --- | --- | --- |
| Clc1cccc(Cl)c1N=C1NCCN1 [Clonidine, clonidine] | – | affinity for alpha-2 receptors [1]: strong affinity; behaviour towards alpha adrenergic receptors [2]: behaves as an agonist towards alpha adrenergic receptors |
| CN1CCN(c2nc(N)c(Cl)c(Cl)n2)CC1 [Example 8, 2-N-methylpiperazino-4-amino-5,6-dichloropyrimidine] | 51 | – |
| CNc1nc(N2CCN(C)CC2)nc(Cl)c1Cl [Example 9, 2-N-methylpiperazino-4-methylamino-5,6-dichloro-pyrimidine] | 44 | – |
| CC(C)Nc1nc(N2CCN(C)CC2)nc(Cl)c1Cl [Example 10, 2-N-methylpiperazino-4-isopropylamino-5,6-dichloropyrimidine] | 5 | – |
| COc1c(Cl)nc(N2CCN(C)CC2)nc1NC(C)C [Example 12, 2-N-methylpiperazino-4-isopropylamino-5-methoxy-6-chloropyrimidine] | – | Ki ([3]; read-out: Ki): 51 nM |
| Cc1c(Cl)nc(N2CCN(C)CC2)nc1NC(C)C [Example 21, 2-N-methylpiperazino-4-isopropylamino-5-methyl-6-chloropyrimidine] | 16 | – |
| CCc1c(Cl)nc(N2CCN(C)CC2)nc1NC(C)C [Example 25, 2-N-methylpiperazino-4-isopropylamino-5-ethyl-6-chloropyrimidine] | – | Ki ([3]; read-out: Ki): 51 nM |
